Drawing on ChEMBL document CHEMBL3507680, “University of Dundee, Gates Library screen for HepG2 cell viability”, this text covers cytotoxicity for 99 compounds.

The data set in a line: Human HepG2 cell viability assay in 384 well format. Format: toxicity, cell-based. On the set-up: dose 125 nL, time 70.5 hour; cytotoxicity at 70.5 h: concentration not given beside the values. The following applies: HepG2 cells, read-out: Inhibition.
On to `COc1ccc(CCCC(=O)NCc2c(C)noc2C)cc1F`, for which the cytotoxicity at 70.5 h amounted to 20%. For the compound `COc1cc(N2CCCC(c3nccn3Cc3ccncc3)C2)ncn1` (centres undefined), the cytotoxicity at 70.5 h was -6.57%.

Regarding `Cc1c(C(=O)N2CCOCC2)n(C)c2ccc(Cl)cc12`, the cytotoxicity at 70.5 h is -10.5%. The value for `CCCS(=O)(=O)N1CCN(C(C)(C)CO)CC1` was 15.5%.

As to `Cc1cccc(-c2cc(C(=O)O)sn2)c1`, the cytotoxicity at 70.5 h was -14.1%. As for `O=C(NCCCN1CCOCC1)c1cccc(OCc2ccccc2)c1`, the cytotoxicity at 70.5 h is -2.84%. To `CCN(CC)C(=O)N1CCN(C(=O)C2CCCc3[nH]ncc32)CC1` (centres undefined) belongs -3.25%; to `Cn1cc(CN2CC[C@]3(C[C@H](OCc4ccccn4)CO3)C2)cn1`, -22.4%. To `COc1ccccc1CC(NC(=O)N1CCC[C@@H]1CO)C(C)C` (some centres undefined) belongs -6.32%; to `COc1ccc2nnc(CCC(=O)Nc3nc4c(s3)CCCC4)n2n1`, -11.9%; to `CCCS(=O)(=O)CC(=O)N1CCCC1c1noc(C2CC2)n1` (centres undefined), -17.8%. To `CC(O)(CCc1ccccc1)CNC(=O)c1cccs1` (centres undefined) belongs -3.94%. Consider `CC(=O)N1CCCN(C(=O)NCC2(c3cccs3)CCCC2)CC1`, for which the cytotoxicity at 70.5 h was -4.55%.

Take `CN1CCc2c(CNc3ncccn3)n[nH]c2C1`: the cytotoxicity at 70.5 h is 49.1%. The value for `CC(Cn1cccn1)NC(=O)NCc1cccnc1OC(C)C` (centres undefined) was -4.84%; that for `Cn1ccnc1CN1C[C@@H](CN2CCCC2)[C@@H](CO)C1` was -5.13%; that for `O=C(Nc1ccc(-c2csnn2)cc1)N1CCN2CCCCC2C1` (centres undefined) was 5.22%.

For the compound `CCn1ccc(C(=O)NCCCN2CCOCC2)n1`, the cytotoxicity at 70.5 h is -11.6%. The value for `O=C(c1nc(-c2ccc3cc[nH]c3c2)no1)N1CCCC1` was -5.08%; that for `CC(C)CNC(=O)N1C[C@H]2C[C@H](C(=O)NCc3ccccc3)[C@@H](C1)O2` was 13.9%. The value for `Cn1cc(NS(=O)(=O)c2ccc(C(F)(F)F)cc2)ccc1=O` was -9.18%; that for `Cc1cnc(CN(C)C2CCN(Cc3nccn3C)C2)o1` (centres undefined) was -3.1%; that for `Cc1cc(C)c2c(N(C)CC3COCCO3)ncnc2n1` (centres undefined) was -8.16%. To `COc1ccc(-n2ccc(C(=O)N3CCC(C(N)=O)C3)n2)cc1` (centres undefined) belongs 23.5%.

For `Cc1sc2c(C3CCCN(C(C)C)C3)nc(C)n2c1C` (centres undefined), the cytotoxicity at 70.5 h is -3.36%. To `Cc1nc2oc(C(=O)N3CCOCC3)c(N)c2c2c1CCCC2` belongs -17.3%; to `Cc1cccc(CN2CCc3ncnc(C4CC4)c3CC2)n1`, 5.72%; to `Cc1cccc2[nH]c(C3CCN(C(=O)c4ccnn4C)CC3)nc12`, 0.0948%.

As to `CN(C)[C@H]1CN(C(=O)CCCc2ccc(F)cc2)C[C@@H]1C1CC1`, the cytotoxicity at 70.5 h is -7.35%.

Consider `CSc1ccc(Cl)c(C(=O)N2CCCC(CNS(C)(=O)=O)C2)c1` (centres undefined), for which the cytotoxicity at 70.5 h amounted to 17.2%. On to `NC(=O)c1cc2c(nc1Oc1ccc(CN3CCCC3)cc1F)CCC2`, for which the cytotoxicity at 70.5 h was -10.9%.

Consider `O=C(c1n[nH]c2c1CCN(Cc1nccs1)C2)N1CCCC1`, for which the cytotoxicity at 70.5 h was -7.39%. The value for `Cc1cc(CCC(=O)N2CCC(O)CC2)ccc1Br` was -0.947%; that for `Cc1nc(C)n(C2CCCN(C(=O)c3ccc(F)c(F)c3)C2)n1` (centres undefined) was -2.21%; that for `Cc1ccc(C(=O)NS(C)(=O)=O)cc1I` was 16.8%. To `O=C(COC1CCCC1)N1C[C@@H]2COC[C@]2(COc2cccnc2)C1` belongs 3.14%; to `CC1CN(Cc2nc(Cc3ccccc3F)no2)CCN1C` (centres undefined), -2.74%. The value for `COc1ccc(CN2C[C@H](N3CCCC3=O)[C@@H]3OCCC[C@@H]32)cc1` was -7%.

Consider `CCn1cc(C(=O)NCc2ccc3c(c2)OCO3)c(C)n1`, for which the cytotoxicity at 70.5 h was -1.15%. To `Cc1csc2c(N3CCC(NCCCC4CCOC4)CC3)ncnc12` (centres undefined) belongs 30.5%; to `Cn1cccc1CNCc1nnc2n1CCCC2C(F)(F)F` (centres undefined), -5.37%; to `Cc1ccc(C(C)(O)CNC(=O)NCCc2ccc3c(c2)CCO3)o1` (centres undefined), 26.1%. With `N#Cc1cc(CSCCN2CCOCC2)ccc1F`, the cytotoxicity at 70.5 h was -13.8%.

Consider `CN1CC(=O)N(c2ccccc2)CC12CCN(Cc1cccnc1)C2` (centres undefined), for which the cytotoxicity at 70.5 h was -11.3%. The value for `Cc1nc(NCCO)cc(C(C)Cn2nc(C)c(C)c2C)n1` (centres undefined) was -3.69%. For the compound `COc1ccccc1OCc1nc(C(C)C)no1`, the cytotoxicity at 70.5 h was determined as 12.8%. The value for `CCCNC(=O)COc1ccc(-c2ccccc2)nc1` was -5.84%; that for `CC(=O)N1CCCC2(CCN(Cc3ccc(Cl)c(F)c3)C2)C1` (centres undefined) was -3.79%; that for `Cn1cc(CNc2ncnc3c2CCN(Cc2ccsc2)CC3)cn1` was 0.199%. The value for `Cc1cnn(CCNCc2ccc(S(C)(=O)=O)cc2)c1` was -4.97%; that for `Cc1[nH]nc2ncc(C(=O)N3CCN(CC(C)(C)O)CC3)cc12` was -0.78%. The value for `CCNC(=O)CN1CCN(c2cc(C)nc(-c3ccncc3)n2)CC1` was -0.76%. `O=C(NCCNC(=O)N1CCC(c2ccccc2)C1)C1CC1` (centres undefined): the cytotoxicity at 70.5 h was -6.87%. As for `Cc1noc(C)c1CN1C[C@@H]2C[C@H](C(=O)NCC3CC3)N(C)[C@@H]2C1`, the cytotoxicity at 70.5 h was -11.9%. For the compound `C=C(C)COc1cccc(C(=O)N(C)C(C)c2c(C)n[nH]c2C)c1` (centres undefined), the cytotoxicity at 70.5 h was -4.42%.

In the case of `Cc1nc(CN2CCC3(CCCO3)CC2)c2ccccn12`, the cytotoxicity at 70.5 h is 14.9%. To `Cc1ncc2c(n1)CN(Cc1nc3ccccc3o1)CC2` belongs 11.4%; to `CNC(=O)C1CCN(Cc2nc(-c3ccc(SC)cc3)oc2C)C1` (centres undefined), -6.93%.

In the case of `Cc1noc(C)c1C(=O)NCCN1CCOCC1`, the cytotoxicity at 70.5 h is 1.59%.

Regarding `CC(=O)N1CCCN(CCn2nc3ccccn3c2=O)CC1`, the cytotoxicity at 70.5 h was -0.882%. The value for `COCC1CC2(CCN(Cc3cnn(C)c3)CC2)CN1C(C)C` (centres undefined) was -15.8%. To `CCCN1CCN(C(=O)c2cnccn2)[C@H]2CS(=O)(=O)C[C@H]21` belongs -0.654%; to `O=C(Nc1cccnc1N1CCSCC1)c1ccc2c(c1)CCO2`, 53.2%; to `CC(C)=CCN1C[C@H]2CC[C@@H]1CN(CCC(=O)NCc1ccco1)C2`, 30.2%.

`COc1cc(C2(C(=O)NC3CCN(CC4CC4)CC3)CC2)ccc1C`: the cytotoxicity at 70.5 h is -6%. To `N#Cc1ccc(N2CCCN(c3nccs3)CC2)nc1` belongs 1.75%; to `Cc1oncc1C(=O)N1CCc2ncnc(-c3cnn(C)c3)c2CC1`, -1.31%; to `CNC(=O)C1CCN(C(=O)CCn2cccn2)CC1`, 26.7%. Take `COc1ccc(-c2nc3c([nH]2)CCNC3C(=O)O)c2ccc(C)nc12` (centres undefined): the cytotoxicity at 70.5 h came to 12.4%.

Take `O=S(=O)(Cc1cccc(F)c1)NCC(O)Cc1ccccc1` (centres undefined): the cytotoxicity at 70.5 h was -10.7%. To `c1cncc(-c2noc(CN3CCCCC3Cn3cccn3)n2)c1` (centres undefined) belongs 1.66%.

Consider `Cc1ncc2c(n1)CN(Cc1noc(C3CC3)n1)CC2`, for which the cytotoxicity at 70.5 h amounted to 15.6%. To `O=C(C1CCOCC1)N1C[C@@H]2CN(Cc3ccsc3)CCO[C@@H]2C1` belongs -10.4%. As to `C=C(C)COCCNC(=O)Nc1cccc(Cn2nc(C)nc2C)c1`, the cytotoxicity at 70.5 h amounted to 19.9%.

On to `CNc1snc(C)c1C(=O)N1CCCC(n2ccnc2C(C)C)C1` (centres undefined), for which the cytotoxicity at 70.5 h was -5.8%. The value for `Cc1ccc2c(c1)CCC2NCc1c(C)nn(C)c1N1CCOCC1` (centres undefined) was -1.48%.

As for `Cc1cc(C)cc(CN2CCN(C(=O)C3CCC3)[C@@H]3CS(=O)(=O)C[C@@H]32)c1`, the cytotoxicity at 70.5 h is -5.88%. To `c1cnnc(N2CCCC(NCc3ccc(-n4cncn4)cc3)C2)c1` (centres undefined) belongs -3.17%; to `CC1CCN(C(=O)C2CC(=O)N(c3cnn(C(C)C)c3)C2)CC1` (centres undefined), -13.2%; to `CCn1c(C)cc(C(=O)N2CCC(Nc3ccc(C)nn3)CC2)c1C`, -91.3%. To `O=C(c1cnco1)N1C[C@@H](O)[C@H](Oc2cccc(F)c2)C1` belongs 14.4%; to `CCc1c(C)n(C)c2nc3ccccc3n2c1=O`, 8.75%.

On to `CN(Cc1cnn(C)c1)C(=O)NCCc1ccc2c(c1)OCO2`, for which the cytotoxicity at 70.5 h is -1.01%. To `CN(CC1CCOCC1)C(C(=O)O)c1cccc(F)c1F` (centres undefined) belongs 0.34%.

Consider `Cc1nc(CN2CCCN(C(=O)c3cnccn3)CC2)cs1`, for which the cytotoxicity at 70.5 h was -3.13%. The value for `Cc1cnn(CC2CCCN2C(=O)CCc2ccncc2)c1` (centres undefined) was -1.24%.

For the compound `CCc1nc(C2CCCN2Cc2nnc(C3CCC3)o2)no1` (centres undefined), the cytotoxicity at 70.5 h was -2.49%. On to `O=C1CO[C@@H]2CNC[C@H]2N1CC1CC1`, for which the cytotoxicity at 70.5 h came to 2.73%. Consider `c1cncc(-c2nnn3c2COCC(CNCC2CCOCC2)C3)c1` (centres undefined), for which the cytotoxicity at 70.5 h was found to be 8.92%. The value for `CN(C)S(=O)(=O)N1CC[C@]2(O)CCN(c3ncccn3)C[C@@H]2C1` was -9.31%; that for `O=C(NCC1CC1)[C@H]1C[C@@H]2CCN(Cc3ccc4c(c3)OCO4)C[C@@H]2O1` was -11.6%; that for `O=C(Nc1cnc2n1CCCC2)c1cccc(-n2cnnc2)c1` was -16.8%. To `Clc1ccc(-n2nnnc2C2(NCc3ccco3)CCCCC2)cc1` belongs -11.2%; to `Cc1cnccc1-c1cnn(CCNC(=O)c2ccccn2)c1C1CC1`, 27.5%. As to `NC(=O)CCOc1nc(-c2ccccc2Cl)no1`, the cytotoxicity at 70.5 h amounted to 16.5%.

For `O=C(Nc1ccccc1)C1CCCN(C(=O)Cn2cncn2)C1` (centres undefined), the cytotoxicity at 70.5 h is -0.859%.

As to `COc1cccc(COCC(=O)N2CCCC(N3CCCC3)CC2)c1` (centres undefined), the cytotoxicity at 70.5 h came out at 3.21%. The value for `Cc1ccc(S(=O)(=O)N2CC(C)Oc3ncccc32)c(C)c1` (centres undefined) was -4.94%. The value for `CC(=O)c1c(C)cc(C)c(CS(=O)(=O)c2nccn2C)c1C` was 8.95%.
